Measurements taken from patent publication US8268881B2, “Carboxamide derivatives as muscarinic receptor antagonists” (Pfizer Limited, priority 2005, dated 2012).
pKi: −log10 of the molar value. Like-named read-outs stand apart in the source and are kept apart here.

Target: T1, human muscarinic M3 receptor (Homo sapiens, UniProt P20309)
T1 construct: expressed in transfected cells
Assay: hM3 β-Lac potency assay (cell based β-lactamase)
Conditions: CHO cells expressing human M3 receptor, NFAT β-lactamase reporter, IC50 converted to Ki by Cheng-Prusoff, read-out: Cell based β-lactamase M3 Ki
Experimental: M3 potency was determined in CHO-K1 cells transfected with the NFAT-Betalactamase gene. CHO (Chinese Hamster Ovary) cells recombinantly expressing the human muscarinic M3 receptor were transfected with the NFAT_β-Lac_Zeo plasmid.
The cells were re-suspended at 2×10^5 cells/ml in growth medium (composition as described above). […] Inhibition curves were plotted and IC50 values generated using a 4-parameter sigmoid fit and converted to Ki values using the Cheng-Prusoff correction and the KD value for carbamyl choline in the assay.

[1] = inhibition of 80 nM carbamyl choline signal, 4 h

T1 sequence (P20309 whole entry): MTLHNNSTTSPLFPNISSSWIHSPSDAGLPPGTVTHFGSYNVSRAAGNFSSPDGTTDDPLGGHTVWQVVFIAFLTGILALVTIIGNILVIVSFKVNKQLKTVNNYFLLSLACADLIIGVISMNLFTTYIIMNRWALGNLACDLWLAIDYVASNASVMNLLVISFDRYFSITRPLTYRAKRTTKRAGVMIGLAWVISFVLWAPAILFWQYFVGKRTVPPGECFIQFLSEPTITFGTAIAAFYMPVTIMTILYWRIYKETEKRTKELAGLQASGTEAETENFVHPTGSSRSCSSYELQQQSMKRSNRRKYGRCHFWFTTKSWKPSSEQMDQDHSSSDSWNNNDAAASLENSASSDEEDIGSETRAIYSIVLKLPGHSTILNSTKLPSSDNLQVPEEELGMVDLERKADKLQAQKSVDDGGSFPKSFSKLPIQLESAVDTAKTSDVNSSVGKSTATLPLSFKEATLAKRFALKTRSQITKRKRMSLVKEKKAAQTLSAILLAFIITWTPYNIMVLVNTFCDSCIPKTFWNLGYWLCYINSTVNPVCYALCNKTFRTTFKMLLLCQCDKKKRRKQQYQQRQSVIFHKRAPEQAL

CC(C)(CCC(C(N)=O)(c1ccccc1)c1ccccc1)N1CCC(Oc2ccccc2)CC1 [Example 90, 5-Methyl-5-(4-Phenoxypiperidin-1-yl)-2,2-diphenylhexanamide]
pKi [1]: 9.57

CC(C)(CCC(C(N)=O)(c1ccccc1)c1ccccc1)N1CC[C@@H](OCc2ccc(F)c(O)c2)C1 [Example 67, 5-[(3R)-3-(4-Fluoro-3-hydroxy-benzyloxy)-pyrrolidin-1-yl]-5-methyl-2,2-diphenylhexanamide]
pKi [1]: 7.97

COc1cccc(O[C@H]2CCN(C(C)(C)CCC(C(N)=O)(c3ccccc3)c3ccccc3)C2)c1F [Example 51, 5-[(3S)-3-(2-Fluoro-3-Methoxy-phenoxy)-pyrrolidin-1-yl]-5-methyl-2,2-diphenyl-hexanoic acid amide]
pKi [1]: 9.21

CC(C)(CCC(C(N)=O)(c1ccccc1)c1ccccc1)N1CC[C@H](OCc2ccccc2)C1 [Example 11, 5-[(3S)-3-(Benzyloxy)pyrrolidin-1-yl]-5-methyl-2,2-diphenylhexanamide]
pKi [1]: 8.49

CC(C)(CCC(C(N)=O)(c1ccccc1)c1ccccc1)N1CC[C@H](Oc2cc(O)cc(C#N)c2)C1 [Example 68, 5-[(3S)-3-(3-Cyano-5-hydroxy-phenoxy)-pyrrolidin-1-yl]-5-methyl-2,2-diphenylhexanamide]
pKi [1]: 8.01

CC(C)(CCC(C(N)=O)(c1ccccc1)c1ccccc1)N1CC(OCc2ccc(Cl)cc2O)C1 [Example 147, 5-[3-(4-Chloro-2-hydroxy-benzyloxy)-azetidin-1-yl]-5-methyl-2,2-diphenyl-hexanoic acid amide]
pKi [1]: 7.48

CC(C)(CCC(C(N)=O)(c1ccccc1)c1ccccc1)N1CC(Oc2ccc(O)cc2)C1 [Example 107, 5-[3-(4-hydroxyphenoxy)azetidin-1-yl]-5-methyl-2,2-diphenylhexanamide]
pKi [1]: 9.88

Cc1c(O)cccc1O[C@H]1CCN(C(C)(C)CCC(C(N)=O)(c2ccccc2)c2ccccc2)C1 [Example 30, 5-[(3S)-3-(3-Hydroxy-2-methyl-phenoxy)-pyrrolidin-1-yl]-5-methyl-2,2-diphenyl-hexanoic acid amide]
pKi [1]: 9.48

CC(C)(CCC(C(N)=O)(c1ccccc1)c1ccccc1)N1CCC(Oc2cc(F)c(C#N)cc2F)CC1 [Example 94, 5-[4-(4-Cyano-2,5-difluoro-phenoxy)-piperidin-1-yl]-5-methyl-2,2-diphenylhexanoic acid amide]
pKi [1]: 7.91

CC(C)(CCC(C(N)=O)(c1ccccc1)c1ccccc1)N1CC(Oc2ccc(Cl)c(O)c2)C1 [Example 114, 5-[3-(4-Chloro-3-hydroxy-phenoxy)-azetidin-1-yl]-5-methyl-2,2-diphenylhexanamide]
pKi [1]: 8.71

COc1cccc(OC2CN(C(C)(C)CCC(C(N)=O)(c3ccccc3)c3ccccc3)C2)c1 [Example 100, 5-[3-(3-Methoxyphenoxy)azetidin-1-yl]-5-methyl-2,2-diphenylhexanamide]
pKi [1]: 9.37

CC(C)(CCC(C(N)=O)(c1ccccc1)c1ccccc1)N1CC(Oc2ccccc2)C1 [Example 104, 5-Methyl-5-(3-phenoxyazetidin-1-yl)-2,2-diphenylhexanamide]
pKi [1]: 10.31

COc1c(Cl)cccc1O[C@@H]1CCN(C(C)(C)CCC(C(N)=O)(c2ccccc2)c2ccccc2)C1 [Example 42, 5-[(3R)-3-(3-Chloro-2-Methoxy-phenoxy)-pyrrolidin-1-yl]-5-methyl-2,2-diphenyl-hexanoic acid amide]
pKi [1]: 7.66

COc1cccc(CO[C@H]2CCN(C(C)(C)CCC(C(N)=O)(c3ccccc3)c3ccccc3)C2)c1 [Example 84, 5-[(3S)-3-(3-methoxy-benzyloxy)pyrrolidin-1-yl]-5-methyl-2,2-diphenylhexanamide]
pKi [1]: 8.16

Cc1cc(O)c(C)c(O[C@H]2CCN(C(C)(C)CCC(C(N)=O)(c3ccccc3)c3ccccc3)C2)c1 [Example 44, 5-[(3S)-3-(3-Hydroxy-2,5-dimethyl-phenoxy)-pyrrolidin-1-yl]-5-methyl-2,2-diphenyl-hexanoic acid amide]
pKi [1]: 7.49

CC(C)(CCC(C(N)=O)(c1ccccc1)c1ccccc1)N1CC[C@H](OCc2cccc(-c3ccccc3)c2)C1 [Example 66, 5-[(3S)-3-(Biphenyl-3-ylmethoxy)pyrrolidin-1-yl]-5-methyl-2,2-diphenylhexanamide]
pKi [1]: 7.34

CC(C)(CCC(C(N)=O)(c1ccccc1)c1ccccc1)N1CC[C@H](Oc2cccc(O)c2F)C1 [Example 53, 5-[(3S)-3-(2-Fluoro-3-Hydroxy-phenoxy)-pyrrolidin-1-yl]-5-methyl-2,2-diphenyl-hexanoic acid amide]
pKi [1]: 9.48

CC(C)(CCC(C(N)=O)(c1ccccc1)c1ccccc1)N1CC[C@H](Oc2ccc3cc(O)ccc3c2)C1 [Example 20, 5-{(3S)-3-[(6-Hydroxy-2-naphthyl)oxy]pyrrolidin-1-yl}-5-methyl-2,2-diphenylhexanamide]
pKi [1]: 6.97

CC(C)(CCC(C(N)=O)(c1ccccc1)c1ccccc1)N1CC[C@@H](Oc2cc(O)cc(F)c2)C1 [Example 74, 5-[(3R)-3-(3-Fluoro-5-hydroxy-phenoxy)-pyrrolidin-1-yl]-5-methyl-2,2-diphenyl-hexanamide]
pKi [1]: > 9.25

CC(C)(CCC(C(N)=O)(c1ccccc1)c1ccccc1)N1CC[C@H](Oc2ccc(-c3cccc(O)c3)cc2)C1 [Example 18, 5-{(3S)-3-[(3′-Hydroxybiphenyl-4-yl)oxy]pyrrolidin-1-yl}-5-methyl-2,2-diphenylhexanamide]
pKi [1]: 8.16

CC(C)(CCC(C(N)=O)(c1ccccc1)c1ccccc1)N1CC(Oc2cc(Cl)c(Cl)cc2O)C1 [Example 111, 5-{3-(4,5-Dichloro-2-hydroxy-phenoxy)-azetidin-1-yl}-5-methyl-2,2-diphenylhexanamide]
pKi [1]: 7.11

COc1cc(OC2CN(C(C)(C)CCC(C(N)=O)(c3ccccc3)c3ccccc3)C2)ccc1Cl [Example 113, 5-[3-(4-Chloro-3-methoxy-phenoxy)-azetidin-1-yl]-5-methyl-2,2-diphenylhexanamide]
pKi [1]: 8.14

CC(C)(CCC(C(N)=O)(c1ccccc1)c1ccccc1)N1CC[C@H](Oc2cc(O)cc(Cl)c2)C1 [Example 34, 5-[(3S)-3-(3-Chloro-5-hydroxy-phenoxy)-pyrrolidin-1-yl]-5-methyl-2,2-diphenyl-hexanoic acid amide]
pKi [1]: 8.18

CC(C)(CCC(C(N)=O)(c1ccccc1)c1ccccc1)N1CC[C@H](OCc2cccc(-c3cccc(O)c3)c2)C1 [Example 61, 5-{(3S)-3-[(3′-Hydroxybiphenyl-3-yl)methoxy]pyrrolidin-1-yl}-5-methyl-2,2-diphenylhexanamide]
pKi [1]: 8.01

CC(C)(CCC(C(N)=O)(c1ccccc1)c1ccccc1)N1CC(Oc2ccc(F)cc2O)C1 [Example 127]
pKi [1]: 6.96

CC(C)(CCC(C(N)=O)(c1ccccc1)c1ccccc1)N1CC[C@@H](Oc2ccc3ncoc3c2)C1 [Example 15, 5-[(3R)-3-(1,3-Benzoxazol-6-yloxy)pyrrolidin-1-yl]5-methyl-2,2-diphenylhexanamide]
pKi [1]: 8.37

CC(C)(CCC(C#N)(c1ccccc1)c1ccccc1)N1CCC(OCc2ccccc2)CC1 [Example 89, 5-[4-(Benzyloxy)piperidin-1-yl]-5-methyl-2,2-diphenylhexanenitrile]
pKi [1]: 6.80

CC(C)(CCC(C(N)=O)(c1ccccc1)c1ccccc1)N1CC[C@H](Oc2ccc(C(F)(F)F)cc2)C1 [Example 24, 5-[(3S)-3-(4-trifluoromethyl-phenoxy)pyrrolidin-1-yl]-5-methyl-2,2-diphenylhexanamide]
pKi [1]: 7.68

CC(C)(CCC(C(N)=O)(c1ccccc1)c1ccccc1)N1CC[C@H](OCc2ccc(-c3cccc(O)c3)cc2)C1 [Example 65, 5-[(3S)-3-[(3′-Hydroxybiphenyl-4-yl)methoxy]pyrrolidin-1-yl]5-methyl-2,2-diphenylhexanamide]
pKi [1]: 7.20

CC(C)(CCC(C(N)=O)(c1ccccc1)c1ccccc1)N1CC[C@H](OCc2cccc(-c3ccccc3O)c2)C1 [Example 64, 5-{(3S)-3-[(2′-Hydroxybiphenyl-3-yl)methoxy]pyrrolidin-1-yl}-5-methyl-2,2-diphenylhexanamide]
pKi [1]: 7.18

CC(C)(CCC(C(N)=O)(c1ccccc1)c1ccccc1)N1CC(Oc2cc(O)cc(Br)c2)C1 [Example 142, 5-[3-(3-Bromo-5-hydroxy-phenoxy)-azetidin-1-yl]-5-methyl-2,2-diphenyl-hexanoic acid amide]
pKi [1]: 8.09

COc1cc(F)cc(O[C@@H]2CCN(C(C)(C)CCC(C(N)=O)(c3ccccc3)c3ccccc3)C2)c1 [Example 73, 5-[(3R)-3-(3-Fluoro-5-methoxy-phenoxy)-pyrrolidin-1-yl]-5-methyl-2,2-diphenylhexanamide]
pKi [1]: 9.07

CC(C)(CCC(C#N)(c1ccccc1)c1ccccc1)N1CCC(Oc2ccccc2)CC1 [Example 86, 5-Methyl-5-(4-phenoxypiperidin-1-yl)-2,2-diphenylhexanenitrile]
pKi [1]: 8.90

CC(C)(CCC(C(N)=O)(c1ccccc1)c1ccccc1)N1CC[C@@H](OCc2ccccc2)C1 [Example 9, 5-[(3R)-3-(Benzyloxy)pyrrolidin-1-yl]-5-methyl-2,2-diphenylhexanamide]
pKi [1]: 8.73

COc1cccc(O[C@@H]2CCN(C(C)(C)CCC(C(N)=O)(c3ccccc3)c3ccccc3)C2)c1Cl [Example 77, 5-[(3R)-3-(2-Chloro-3-methoxy-phenoxy)-pyrrolidin-1-yl]-5-methyl-2,2-diphenylhexanamide]
pKi [1]: 8.30

COc1cccc(O[C@H]2CCN(C(C)(C)CCC(C(N)=O)(c3ccccc3)c3ccccc3)C2)c1 [Example 6, 5-[(3S)-3-(3-methoxyphenoxy)pyrrolidin-1-yl]-5-methyl-2,2-diphenylhexanamide]
pKi [1]: 8.99

CC(C)(CCC(C#N)(c1ccccc1)c1ccccc1)N1CCC(OCc2cccc(O)c2)CC1 [Example 88, 5-{4-[(3-Hydroxybenzyl)oxy]piperidin-1-yl}-5-methyl-2,2-diphenylhexanenitrile]
pKi ([…]): 7.14
